# Test results from the supplement of paper PMC10307832.
# How the values were obtained:
# Assay in all cases: relative viability (nuclei count vs DMSO), 5 days (fraction); higher = more cells survive
# NCI-H1792 = system: NCI-H1792
# Outline: (§1)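 Relative viability is defined as nuclei in treated wells over nuclei in vehicle wells. Duplicate plates were run and medians reported. Lung cancer cell lines in 1536-well plates were dosed by pin tool one day after seeding, with one drug or with a fixed anchor-drug dose plus five library-drug doses (not always all listed) in √10 steps, and nuclei were counted after 5 days.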
# LCLC-103H = system: LCLC-103H
# Outline: as §1
# 201T = system: 201T
# Outline: as §1
# RERF-LC-KJ = system: RERF-LC-KJ
# Outline: as §1
# NCI-H23 = system: NCI-H23
# Outline: as §1
# NCI-H322M = system: NCI-H322M
# Outline: as §1
# HCC-15 = system: HCC-15
# Outline: as §1
# LK-2 = system: LK-2
# Outline: as §1
# LXF-289 = system: LXF-289
# Outline: as §1
# CAL-12T = system: CAL-12T
# Outline: as §1
# COR-L 105 = system: COR-L 105
# Outline: as §1
# H3255 = system: H3255
# Outline: as §1
# BEN = system: BEN
# Outline: as §1
# NCI-H2228 = system: NCI-H2228
# Outline: as §1
# HARA = system: HARA
# Outline: as §1
# LC-2-ad = system: LC-2-ad
# Outline: as §1
# HCC-827 = system: HCC-827
# Outline: as §1
# NCI-H1437 = system: NCI-H1437
# Outline: as §1
# NCI-H1651 = system: NCI-H1651
# Outline: as §1
# NCI-H2085 = system: NCI-H2085
# Outline: as §1
# UMC-11 = system: UMC-11
# Outline: as §1
# LU99A = system: LU99A
# Outline: as §1
# NCI-H2405 = system: NCI-H2405
# Outline: as §1
smiles,measurement,setting,value
O=c1[nH]c2ccccc2n1C1CCN(CCCC(c2ccc(F)cc2)c2ccc(F)cc2)CC1 [Pimozide] + CC(=O)c1c(C)c2cnc(Nc3ccc(N4CCNCC4)cn3)nc2n(C2CCCC2)c1=O [Palbociclib] (partner 0.5 µM),relative viability,NCI-H1792; first compound 0.08 µM,0.665
same,relative viability,NCI-H1792; first compound 0.253 µM,0.635
same,relative viability,NCI-H1792; first compound 0.8 µM,0.625
same,relative viability,NCI-H1792; first compound 2.53 µM,0.589
same,relative viability,NCI-H1792; first compound 8 µM,0.52
same,relative viability,LCLC-103H; first compound 0.08 µM,0.451
same,relative viability,LCLC-103H; first compound 0.253 µM,0.46
same,relative viability,LCLC-103H; first compound 0.8 µM,0.428
same,relative viability,LCLC-103H; first compound 2.53 µM,0.444
same,relative viability,LCLC-103H; first compound 8 µM,0.489
same,relative viability,201T; first compound 0.08 µM,0.363
same,relative viability,201T; first compound 0.253 µM,0.356
same,relative viability,201T; first compound 0.8 µM,0.337
same,relative viability,201T; first compound 2.53 µM,0.314
same,relative viability,201T; first compound 8 µM,0.342
same,relative viability,RERF-LC-KJ; first compound 0.08 µM,1
same,relative viability,RERF-LC-KJ; first compound 0.253 µM,0.972
same,relative viability,RERF-LC-KJ; first compound 0.8 µM,0.987
same,relative viability,RERF-LC-KJ; first compound 2.53 µM,0.778
same,relative viability,RERF-LC-KJ; first compound 8 µM,0.851
same,relative viability,NCI-H23; first compound 0.08 µM,0.454
same,relative viability,NCI-H23; first compound 0.253 µM,0.525
same,relative viability,NCI-H23; first compound 0.8 µM,0.435
same,relative viability,NCI-H23; first compound 2.53 µM,0.445
same,relative viability,NCI-H23; first compound 8 µM,0.553
same,relative viability,NCI-H322M; first compound 0.08 µM,0.416
same,relative viability,NCI-H322M; first compound 0.253 µM,0.475
same,relative viability,NCI-H322M; first compound 0.8 µM,0.483
same,relative viability,NCI-H322M; first compound 2.53 µM,0.492
same,relative viability,NCI-H322M; first compound 8 µM,0.505
same,relative viability,HCC-15; first compound 0.08 µM,0.747
same,relative viability,HCC-15; first compound 0.253 µM,0.641
same,relative viability,HCC-15; first compound 0.8 µM,0.673
same,relative viability,HCC-15; first compound 2.53 µM,0.652
same,relative viability,HCC-15; first compound 8 µM,0.653
same,relative viability,LK-2; first compound 0.08 µM,0.646
same,relative viability,LK-2; first compound 0.253 µM,0.599
same,relative viability,LK-2; first compound 0.8 µM,0.698
same,relative viability,LK-2; first compound 8 µM,0.562
same,relative viability,LXF-289; first compound 0.08 µM,0.588
same,relative viability,LXF-289; first compound 0.253 µM,0.607
same,relative viability,LXF-289; first compound 0.8 µM,0.571
same,relative viability,LXF-289; first compound 2.53 µM,0.574
same,relative viability,LXF-289; first compound 8 µM,0.586
same,relative viability,CAL-12T; first compound 0.08 µM,0.473
same,relative viability,CAL-12T; first compound 0.253 µM,0.416
same,relative viability,CAL-12T; first compound 0.8 µM,0.442
same,relative viability,CAL-12T; first compound 2.53 µM,0.295
same,relative viability,CAL-12T; first compound 8 µM,0.269
same,relative viability,COR-L 105; first compound 0.08 µM,0.378
same,relative viability,COR-L 105; first compound 0.253 µM,0.399
same,relative viability,COR-L 105; first compound 0.8 µM,0.409
same,relative viability,COR-L 105; first compound 2.53 µM,0.426
same,relative viability,COR-L 105; first compound 8 µM,0.416
same,relative viability,H3255; first compound 0.253 µM,0.312
same,relative viability,H3255; first compound 0.8 µM,0.299
same,relative viability,H3255; first compound 2.53 µM,0.307
same,relative viability,H3255; first compound 8 µM,0.312
same,relative viability,BEN; first compound 0.08 µM,0.442
same,relative viability,BEN; first compound 0.253 µM,0.472
same,relative viability,BEN; first compound 0.8 µM,0.451
same,relative viability,BEN; first compound 2.53 µM,0.457
same,relative viability,BEN; first compound 8 µM,0.494
same,relative viability,NCI-H2228; first compound 0.08 µM,0.517
same,relative viability,NCI-H2228; first compound 0.253 µM,0.58
same,relative viability,NCI-H2228; first compound 0.8 µM,0.606
same,relative viability,NCI-H2228; first compound 2.53 µM,0.587
same,relative viability,NCI-H2228; first compound 8 µM,0.417
same,relative viability,HARA; first compound 0.08 µM,0.278
same,relative viability,HARA; first compound 0.253 µM,0.263
same,relative viability,HARA; first compound 0.8 µM,0.22
same,relative viability,HARA; first compound 2.53 µM,0.255
same,relative viability,HARA; first compound 8 µM,0.178
same,relative viability,LC-2-ad; first compound 0.08 µM,0.517
same,relative viability,LC-2-ad; first compound 0.253 µM,0.474
same,relative viability,LC-2-ad; first compound 0.8 µM,0.475
same,relative viability,LC-2-ad; first compound 2.53 µM,0.472
same,relative viability,LC-2-ad; first compound 8 µM,0.482
same,relative viability,HCC-827; first compound 0.253 µM,0.449
same,relative viability,HCC-827; first compound 0.8 µM,0.459
same,relative viability,HCC-827; first compound 2.53 µM,0.484
same,relative viability,HCC-827; first compound 8 µM,0.514
same,relative viability,NCI-H1437; first compound 0.08 µM,0.338
same,relative viability,NCI-H1437; first compound 0.253 µM,0.328
same,relative viability,NCI-H1437; first compound 0.8 µM,0.25
same,relative viability,NCI-H1437; first compound 2.53 µM,0.256
same,relative viability,NCI-H1437; first compound 8 µM,0.265
same,relative viability,NCI-H1651; first compound 0.08 µM,0.514
same,relative viability,NCI-H1651; first compound 0.253 µM,0.466
same,relative viability,NCI-H1651; first compound 0.8 µM,0.534
same,relative viability,NCI-H1651; first compound 2.53 µM,0.497
same,relative viability,NCI-H1651; first compound 8 µM,0.546
same,relative viability,NCI-H2085; first compound 0.08 µM,0.452
same,relative viability,NCI-H2085; first compound 0.253 µM,0.483
same,relative viability,NCI-H2085; first compound 0.8 µM,0.438
same,relative viability,NCI-H2085; first compound 2.53 µM,0.479
same,relative viability,NCI-H2085; first compound 8 µM,0.422
same,relative viability,UMC-11; first compound 0.08 µM,0.313
same,relative viability,UMC-11; first compound 0.253 µM,0.35
same,relative viability,UMC-11; first compound 0.8 µM,0.315
same,relative viability,UMC-11; first compound 2.53 µM,0.278
same,relative viability,UMC-11; first compound 8 µM,0.367
same,relative viability,LU99A; first compound 0.08 µM,0.407
same,relative viability,LU99A; first compound 0.8 µM,0.388
same,relative viability,LU99A; first compound 2.53 µM,0.421
same,relative viability,LU99A; first compound 8 µM,0.41
same,relative viability,NCI-H2405; first compound 0.08 µM,0.522
same,relative viability,NCI-H2405; first compound 0.253 µM,0.516
same,relative viability,NCI-H2405; first compound 0.8 µM,0.478
same,relative viability,NCI-H2405; first compound 2.53 µM,0.456
same,relative viability,NCI-H2405; first compound 8 µM,0.33
